Results as given in patent publication US20070031328A1, “Radiolabeled-pegylation of ligands for use as imaging agents” (priority 2005, published 2007).
Like-named read-outs stand apart in the source and are kept apart here.

How the values were obtained:
[1] = Partition coefficients, 1-octanol/buffer; type: physicochemical; conditions: log of partition coefficient between 1-Octanol and buffer (0.1 M phosphate, pH 7.4)
Procedure: Partition coefficients were measured by mixing the [^18F]tracer with 3 g each of 1-octanol and buffer (0.1 M phosphate, pH 7.4) in a test tube. The test tube was vortexed for 3 min at room temperature, followed by centrifugation for 5 min. Two weighed samples (0.5 g each) from the 1-octanol and buffer layers were counted in a well counter. The partition coefficient was determined by calculating the ratio of cpm/g of 1-octanol to that of buffer. Samples from the 1-octanol layer were re-partitioned until consistent partitions of coefficient values were obtained (usually the 3rd or 4th partition). The measurement was done in triplicate and repeated three times.

[2] = log of partition coefficient between 1-Octanol and buffer; compounds marked as from ref (20); cited from earlier work
[3] = target: T1, Ab aggregates of AD brain homogenates (Homo sapiens, UniProt P05067); conditions: [125I]IMPY, values marked as from refs (20), (6), (15); cited from earlier work
T1 construct: to Ab aggregates of AD brain homogenates; from tissue; host or cells: post-mortem grey matter of AD patients, homogenised in PBS
T1 sequence (P05067 672-713 limits assumed): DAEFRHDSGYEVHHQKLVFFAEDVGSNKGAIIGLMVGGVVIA

[4] = Periodic HPLC injection of purified [18F]8b (second peak formation); type: physicochemical; conditions: purified tracer injected periodically on HPLC after purification; attributed to E and Z isomers
Procedure: Radiolabeled [^18F]8b was prepared from the mesylate precursor in moderate radiochemical yield (23%) but unfortunately could not be prepared in good radiochemical purity. The formation of a second peak was evident within minutes of labeling. […] They attribute the formation of a second peak to the facile formation of E and Z isomers (30).
[^18F]8b from precursor 11: (HPLC conditions: Phenomenex Gemini C18 semi-prep column [(5.0×250 mm, 5 μm); Acetonitrile/water 60/40; flow rate 3 mL/min)
Retention time of ^18F-labeled product was 28.0 min., well separated from the major hydrolysis by-product (Rt=11.8 min.). The product was isolated in 23% radiochemical yield (decay corrected) and greater than 98% radiochemical purity. Purified [^18F]8b was injected periodically after purification. Formation of a second peak increased to 50% of the parent compound.

[5] = target: T1, Ab aggregates of AD brain homogenates; assay: Inhibition of [125I]IMPY binding to Aβ aggregates of AD brain homogenates; set-up: species or system human (AD patients)
Procedure: Postmortem brain tissues were obtained from AD patients at autopsy, and neuropathological diagnosis was confirmed by current criteria (NIA-Reagan Institute Consensus Group, 1997). Homogenates were then prepared from dissected gray matters from AD patients in phosphate buffered saline (PBS, pH 7.4) at the concentration of approximately 100 mg wet tissue/ml (motor-driven glass homogenizer with setting of 6 for 30 sec).
(§1) Binding assays were carried out in 12×75 mm borosilicate glass tubes. […] The mixture was incubated at 37° C. for 2 hr and the bound and the free radioactivity were separated by vacuum filtration through Whatman GF/B filters using a Brandel M-24R cell harvester followed by 2×3 ml washes of PBS at room temperature. Filters containing the bound ^125I ligand were assayed for radioactivity content in a gamma counter (Packard 5000) with 70% counting efficiency.
as §1, with “efficiency. […] The results of inhibition experiments were subjected to nonlinear regression analysis using EBDA by which Ki values were calculated.” for “efficiency.”

[6] = 1-octanol/buffer, read-out: logP

Row | SMILES | logP [1, 6] | Ki [5] [nM] | further results
1 | CN(C)c1ccc(-c2cn3cc(I)ccc3n2)cc1 [IMPY, 6-iodo-2-(4′-dimethylamino)phenyl-imidazo[1,2-a]pyridine, reference compound] | 2.19 |  | 
2 | CNc1ccc(/C=C/c2ccc(OCCOCCOCCOCCF)cc2)cc1 [Compound 1c] |  |  | logP [2]: 2.05; Ki [3]: 4.4 ± 0.8 nM
3 | CN(C)c1ccc(/C=C/c2nc3ccc(OCCOCCOCC[18F])cc3o2)cc1 [[^18F]8b] |  |  | Formation of a second peak, of the parent compound [4]: 50%
4 | CNc1ccc(-c2nc3ccc(OCCOCCF)cc3s2)cc1 [Compound 5a, 2-[4′-(methylamino)phenyl]-6-[2-(2-fluoroethoxy)-ethoxy]benzothiazole] | 3.04 | 2.2 ± 0.5 | 
5 | CN(C)c1ccc(-c2cn3cc(OCCOCCOCCF)ccc3n2)cc1 [Compound 12c, 6-(2-fluoroethoxy-ethoxy-ethoxy)-2-(4-dimethylamino-)phenyl-imidazo[1,2-a]pyridine] | 2.69 | 30 ± 2.5 | 
6 | CNc1ccc(/C=C/c2nc3ccc(OCCF)cc3o2)cc1 [BF-168, reference compound] |  |  | Ki [3]: 6.4 nM
7 | CN(C)c1ccc(-c2cn3cc(OCCF)ccc3n2)cc1 [Compound 12a, 6-(2-fluoroethoxy)-2-(4-dimethylamino-)phenyl-imidazo [1,2-a]pyridine] |  | 16 ± 2 | 
8 | CN(C)c1ccc(C=Cc2nc3ccc(OCCF)cc3o2)cc1 [Compound 8a, 6-(2-fluoroethoxy)-[2-(4-dimethylaminophenyl)-vinyl]-benzooxazol] |  | 12 ± 0.5 | 
9 | CNc1ccc(/C=C/c2ccc(OCCOCCOCCF)cc2)cc1 [Compound 1b] |  |  | logP [2]: 2.41; Ki [3]: 6.7 ± 0.3 nM
10 | CNc1ccc(/C=C/c2ccc(O)cc2)cc1 [SB-13, reference compound] |  |  | logP [1]: 2.36
11 | CN(C)c1ccc(/C=C/c2nc3ccc(OCCOCCOCCOCCOCCOCCF)cc3o2)cc1 [Compound 8c, 6-(2-(2-(2-(2-(2-(2-fluoroethoxy)-ethoxy)-ethoxy)-ethoxy)-ethoxy)-ethoxy)-[2-(4-dimethylaminophenyl)-vinyl]-benzooxazol] |  | 10 ± 0.2 | 
12 | CN(C)c1ccc(C=Cc2nc3ccc(OCCOCCOCCOCCOCCOCCOCCOCCF)cc3o2)cc1 [Compound 8d, 6-(2-(2-(2-(2-(2-(2-(2-(2-fluoroethoxy)-ethoxy)-ethoxy)-ethoxy)-ethoxy)-ethoxy)-ethoxy)-ethoxy)-[2-(4-dimethylaminophenyl)-vinyl]-benzooxazol] |  | 6 ± 0.6 | 
13 | CNc1ccc(-c2nc3ccc(OCCOCCOCCF)cc3s2)cc1 [Compound 5b, 2-[4′-(methylamino)phenyl]-6-{2-[2-(2-fluoroethoxy)-ethoxy]ethoxy}benzothiazole] | 3.04 | 3.8 ± 0.5 | 
14 | CN(C)c1ccc(C=Cc2nc3ccc(OCCOCCOCCF)cc3o2)cc1 [Compound 8b, 6-(2-(2-(2-fluoroethoxy)-ethoxy)-ethoxy)-[2-(4-dimethylaminophenyl)-vinyl]-benzooxazol] | 2.93 | 14.5 ± 5 | 
15 | CNc1ccc(/C=C/c2ccc(OCCOCCF)cc2)cc1 [Compound 1a] |  |  | logP [2]: 2.53; Ki [3]: 2.9 ± 0.2 nM
16 | CNc1ccc(-c2nc3ccc(OCCOCCOCCOCCOCCOCCF)cc3s2)cc1 [Compound 5c, 2-[4′-(methylamino)phenyl]-6-{2-[2-(2-{2-[2-(2-fluoroethoxy)-ethoxy]ethoxy}ethoxy)ethoxy]ethoxy}benzothiazole] | 2.99 | 4.7 ± 0.9 | 
17 | CNc1ccc(/C=C/c2ccc(OCCOCCOCCOCCOCCF)cc2)cc1 [Compound 1d] |  |  | logP [2]: 2.27; Ki [3]: 6.8 ± 0.8 nM
18 | CN(C)c1ccc(-c2cn3cc(OCCOCCF)ccc3n2)cc1 [Compound 12b, 6-(2-fluoroethoxy-ethoxy)-2-(4-dimethylamino-)phenyl-imidazo[1,2-a]pyridine] |  | 31 ± 9 | 
